Data taken from ChEMBL document CHEMBL5357084, “Structure-Guided Discovery of Diverse Cytotoxic Dimeric Xanthones/Chromanones from Penicillium chrysogenum C-7-2-1 and Their Interconversion Properties” (J Nat Prod, 2024).
Calls of active or inactive are those of the source. The calls are words filed in the database; no cut-off is given here.

Assays:
[1] = system: NCI-H23; test: Cytotoxicity against human NCI-H23 cells […] at 50 uM measured after 48 hrs by MTT assay relative to control; assay type: functional
[2] = system: Caco-2; test: Cytotoxicity against human Caco-2 cells assessed as inhibition of cell growth at 50 uM measured after 48 hrs by MTT assay relative to control; assay type: functional; design: scale not given: the % may be the effect or the level left
[3] = system: A-375; test: Cytotoxicity against human A-375 cells […] at 50 uM measured after 48 hrs by MTT assay relative to control; assay type: functional
[4] = system: BEAS-2B; test: Cytotoxicity against human BEAS-2B cells assessed as inhibition of cell growth at 50 uM measured after 48 hrs by MTT assay relative to control; assay type: functional
[5] = system: SW-620; test: Cytotoxicity against human SW620 cells assessed as inhibition of cell growth at 50 uM measured after 48 hrs by MTT assay relative to control; assay type: functional
[6] = system: NCI-H1299; test: Cytotoxicity against human NCI-H1299 cells assessed as inhibition of cell growth at 50 uM measured after 48 hrs by MTT assay relative to control; assay type: functional; design: scale not given: the % may be the effect or the level left
[7] = system: Caco-2; test: Cytotoxicity against human Caco-2 cells assessed as inhibition of cell growth measured after 48 hrs by MTT assay; assay type: functional, cell-based; details: Caco-2, 48 h
[8] = system: NCI-H1299; test: Cytotoxicity against human NCI-H1299 cells assessed as inhibition of cell growth measured after 48 hrs by MTT assay; assay type: functional, cell-based; details: NCI-H1299, 48 h
[9] = system: BEAS-2B; test: Cytotoxicity against human BEAS-2B cells assessed as inhibition of cell growth measured after 48 hrs by MTT assay; assay type: functional, cell-based
[10] = system: SW-620; test: Cytotoxicity against human SW620 cells assessed as inhibition of cell growth measured after 48 hrs by MTT assay; assay type: functional, cell-based
[11] = system: NCI-H23; test: Cytotoxicity against human NCI-H23 cells assessed as inhibition of cell growth measured after 48 hrs by MTT assay; assay type: functional, cell-based; details: NCI-H23, 48 h
[12] = system: A-375; test: Cytotoxicity against human A-375 cells assessed as inhibition of cell growth measured after 48 hrs by MTT assay; assay type: functional, cell-based; details: A-375, 48 h
[13] = system: NCI-H23; test: Induction of cell cycle arrest in human NCI-H23 cells assessed as accumulation of cells at S phase at 5 uM incubated for 24 hrs by PI staining based flow cytometry analysis (reference value: 15.45+/-1.79%); assay type: functional
[14] = system: NCI-H23; test: Induction of cell cycle arrest in human NCI-H23 cells assessed as accumulation of cells at G1 phase at 5 uM incubated for 24 hrs by PI staining based flow cytometry analysis (reference value: 56.95+/-1.02%); assay type: functional
[15] = system: NCI-H23; test: Induction of cell cycle arrest in human NCI-H23 cells assessed as accumulation of cells at G2/M phase at 5 uM incubated for 24 hrs by PI staining based flow cytometry analysis (reference value: 27.60+/-0.83%); assay type: functional
[16] = system: NCI-H23; test: Induction of apoptosis in human NCI-H23 cells assessed as apoptosis rate at 10 uM incubated for 24 hrs by annexin V-FITC and propidium iodide staining based flow cytometry analysis (reference value: 6.88+/-2.63%); assay type: functional
[17] = system: NCI-H23; test: Induction of cell cycle arrest in human NCI-H23 cells assessed as accumulation of cells at S phase at 10 uM incubated for 24 hrs by PI staining based flow cytometry analysis (reference value: 15.45+/-1.79%); assay type: functional
[18] = system: NCI-H23; test: Induction of cell cycle arrest in human NCI-H23 cells assessed as accumulation of cells at G1 phase at 10 uM incubated for 24 hrs by PI staining based flow cytometry analysis (reference value: 56.95+/-1.02%); assay type: functional
[19] = system: NCI-H23; test: Induction of cell cycle arrest in human NCI-H23 cells assessed as accumulation of cells at G2/M phase at 10 uM incubated for 24 hrs by PI staining based flow cytometry analysis (reference value: 27.60+/-0.83%); assay type: functional
[20] = system: NCI-H23; test: Induction of apoptosis in human NCI-H23 cells assessed as apoptosis rate at 5 uM incubated for 24 hrs by annexin V-FITC and propidium iodide staining based flow cytometry analysis (reference value: 6.88+/-2.63%); assay type: functional
[21] = system: NCI-H23; test: Induction of cell cycle arrest in human NCI-H23 cells assessed as accumulation of cells at SubG1 phase at 5 to 10 uM incubated for 24 hrs by PI staining based flow cytometry analysis (reference value: 0%); assay type: functional; details: dose 5-10 µM
[22] = system: NCI-H23; test: Induction of apoptosis in human NCI-H23 cells assessed as apoptosis rate incubated for 24 hrs by annexin V-FITC and propidium iodide staining based flow cytometry analysis; assay type: functional, cell-based; details: dose 5-10 µM
[23] = Homo sapiens, SW-620, 48 h, read-out: IC50

| Structure (SMILES) | Activity [1] | Activity [2] | Activity [3] | Cell growth relative to control [4] | Cell growth relative to control [5] | Activity [6] | IC50 [7] | IC50 [8] | IC50 ([9]; beas-2b) | IC50 [11] | IC50 [12] | further results |
| --- | --- | --- | --- | --- | --- | --- | --- | --- | --- | --- | --- | --- |
| COC(=O)[C@@]12Oc3ccc(-c4ccc5c(c4O)C(=O)C[C@](C(=O)OC)([C@H]4OC(=O)C[C@@H]4C)O5)c(O)c3C(=O)C1=C(O)C[C@H](C)[C@H]2O | 87.6% | 82.5% | 74.7% | 109.9% | 90.4% | 78.4% | – | – | – | – | – | – |
| COC(=O)[C@@]12Oc3c(-c4ccc5c(c4O)C(=O)C[C@](C(=O)OC)([C@@H]4OC(=O)C[C@@H]4C)O5)ccc(O)c3C(=O)C1=C(O)C[C@H](C)[C@H]2O | 102.6% | 102.4% | 106% | 96.8% | 117% | 66.2% | – | – | – | – | – | – |
| COC(=O)[C@@]1([C@H](O)[C@@H](C)CC(=O)O)CC(=O)c2c(ccc(-c3ccc4c(c3O)C(=O)C[C@@](C(=O)OC)([C@H](O)[C@@H](C)CC(=O)O)O4)c2O)O1 | 83.6% | 94.4% | 103.2% | 105.5% | 98.7% | 64.9% | – | – | – | – | – | – |
| COC(=O)[C@@]12Oc3cc(C)c(-c4ccc5c(c4O)C(=O)C4=C(O)C[C@H](C)[C@H](O)[C@]4(C(=O)OC)O5)c(O)c3C(=O)C1=C(O)CC[C@H]2O | 5.2% | 68.9% | 83.9% | 155.8% | 98.9% | 76.4% | > 50 µM | > 50 µM | Not Active | 6.9 µM | > 50 µM | IC50 [10, 23]: > 50 µM |
| COC(=O)[C@@]1([C@H](O)[C@@H](C)CC(=O)O)CC(=O)c2c(ccc(-c3ccc(O)c4c3O[C@](C(=O)OC)([C@H](O)[C@@H](C)CC(=O)O)CC4=O)c2O)O1 | 73.1% | 94.4% | 91.7% | 110% | 99.3% | 78.6% | – | – | – | – | – | – |
| COC(=O)[C@]12Oc3ccc(-c4ccc5c(c4O)C(=O)C4=C(O)C[C@@H](C)[C@H](O)[C@@]4(C(=O)OC)O5)c(O)c3C(=O)C1=C(O)C[C@@H](C)[C@@H]2O [SECALONIC ACID A] | 8.7% | 54.5% | 75.6% | 107.3% | 80.1% | 73.6% | > 50 µM | > 50 µM | Not Active | 2.6 µM | > 50 µM | IC50 [10, 23]: > 50 µM |
| COC(=O)[C@@]12Oc3c(-c4ccc5c(c4O)C(=O)C[C@](C(=O)OC)([C@H]4OC(=O)C[C@@H]4C)O5)ccc(O)c3C(=O)C1=C(O)C[C@H](C)[C@H]2O | 82.8% | 99.2% | 86.1% | 179.2% | 111% | 64.2% | – | – | – | – | – | – |
| COC(=O)[C@@]12Oc3ccc(-c4ccc(O)c5c4O[C@]4(C(=O)OC)C(=C(O)C[C@H](C)[C@@H]4O)C5=O)c(O)c3C(=O)C1=C(O)C[C@H](C)[C@H]2O | 7.2% | 70.2% | 75% | 151.6% | 98.6% | 64.9% | > 50 µM | > 50 µM | Not Active | 6.4 µM | > 50 µM | Activity [13]: 15%; Activity [14]: 46.56%; Activity [15]: 38.43%; Activity [16]: 60.11%; Activity [17]: 8.85%; Activity [18]: 38.68%; Activity [19]: 52.48%; Activity [20]: 45.71%; IC50 ([10]; sw-620): Not Active; Activity [21]: 0%; Activity [22]: Dose-Dependent Effect |
| COC(=O)C[C@H](C)[C@@H](O)[C@]1(C(=O)OC)CC(=O)c2c(ccc(-c3ccc4c(c3O)C(=O)C[C@](C(=O)OC)([C@@]3(O)OC(=O)C[C@@H]3C)O4)c2O)O1 | 73.6% | 92.1% | 94.4% | 171.6% | 115.5% | 87.9% | – | – | – | – | – | – |
| COC(=O)[C@@]12Oc3ccc(-c4ccc(O)c5c4O[C@@](C(=O)OC)([C@H]4OC(=O)C[C@@H]4C)CC5=O)c(O)c3C(=O)C1=C(O)C[C@H](C)[C@H]2O | 56% | 82.4% | 76.8% | – | 94.9% | 65.9% | – | – | – | – | – | Activity [4]: inactive |
| COC(=O)[C@]1([C@H]2OC(=O)C[C@@H]2C)CC(=O)c2c(ccc(-c3ccc4c(c3O)C(=O)C[C@@](C(=O)OC)([C@H](O)[C@@H](C)CC(=O)O)O4)c2O)O1 | 90.1% | 46.8% | 63% | 158.7% | 70.5% | 76.4% | 25.9 µM | > 50 µM | Not Active | > 50 µM | > 50 µM | IC50 [10, 23]: > 50 µM |
| CNC(=O)c1cc(Oc2ccc(NC(=O)Nc3ccc(Cl)c(C(F)(F)F)c3)cc2)ccn1 [SORAFENIB] | – | – | – | – | – | – | 1.3 µM | 3.4 µM | – | 2.4 µM | 1.8 µM | IC50 ([9]; Homo sapiens, BEAS-2B, 48 h, read-out: IC50): 31.6 µM; IC50 [10, 23]: 2.3 µM |
| COC(=O)[C@@]12Oc3c(c(O)cc(C)c3-c3ccc4c(c3O)C(=O)C3=C(O)C[C@H](C)[C@H](O)[C@]3(C(=O)OC)O4)C(=O)C1=C(O)CC[C@H]2O | 82.6% | 85% | 79.9% | 99.5% | 106.3% | 81.1% | – | – | – | – | – | – |
| COC(=O)C[C@H](C)[C@@H](O)[C@]1(C(=O)OC)CC(=O)c2c(O)ccc(-c3ccc4c(c3O)C(=O)C[C@](C(=O)OC)([C@@]3(O)OC(=O)C[C@@H]3C)O4)c2O1 | 86.7% | 55.9% | 102.5% | 171% | 72.9% | 70.4% | – | – | – | – | – | – |
| COC(=O)[C@@]12Oc3c(-c4ccc(O)c5c4O[C@]4(C(=O)O)C(=C(O)C[C@@H](C)[C@@H]4O)C5=O)ccc(O)c3C(=O)C1=C(O)C[C@H](C)[C@@H]2O | 6.7% | 73.2% | 84.1% | 155.5% | 99.9% | 38.2% | > 50 µM | 30.9 µM | Not Active | 3.9 µM | > 50 µM | IC50 ([10]; sw-620): Not Active |
